The values below come from patent US11702422B2, “Imidazopyridazines as modulators of IL-17” (Janssen Pharmaceutica NV, priority 2020, dated 2023).

Molecules are shown by their SMILES.

Test [1] deals with IL-17A-induced G-CSF production in human normal keratinocyte (NHK). As to the kind of experiment: NHK Assay: IL-17A-induced G-CSF production in human normal keratinocytes. The following applies: 24 h, adult normal human keratinocytes, IL-17A 5 ng/mL, simple average if tested more than once. It is filed as cell-based. The method, boiled down: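 IL-17A (5 ng/mL final) was pre-incubated 1 h at rt with titrated compound and then added to adult normal human keratinocytes (5% FBS, 0.2% DMSO) for 24 h at 37° C. Supernatant G-CSF was measured by HTRF against a standard curve to derive IC50. Viability was checked by CellTiter-Glo.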

In test [2] the target is IL-17A(FLAG-Tagged): IL-17RA(His-Tagged) (Homo sapiens, UniProt Q16552, K93Q). Description: IL-17A(FLAG-Tagged): IL-17RA(His-Tagged) Binding Disruption Eu-HTRF Assay. The following applies: IL-17A/IL-17RA binding disruption, simple average if tested more than once. The method, boiled down:
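IC50 comes from a one-site competition fit of the HTRF 665/620 nm ratio. Compound dilutions (2-fold, 22 points) were held 1 h rt with FLAG-tagged IL-17A dimer, then His-tagged IL-17RA plus Eu-cryptate anti-FLAG and D2 anti-His antibodies were added for 2 h rt.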

Chain of UniProt Q16552 (Q16552 with tags, fused parts or gaps K93Q): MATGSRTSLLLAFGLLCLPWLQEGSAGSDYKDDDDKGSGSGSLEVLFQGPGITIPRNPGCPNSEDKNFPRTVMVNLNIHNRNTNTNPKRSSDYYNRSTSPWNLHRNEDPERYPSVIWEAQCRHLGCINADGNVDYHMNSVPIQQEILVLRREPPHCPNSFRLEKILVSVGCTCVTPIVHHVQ

Consider `O=C(CCC(F)(F)F)N[C@@H](c1cnn2cc([C@@H](NC(=O)c3ccnn3C(F)F)C3CCC(F)(F)CC3)nc2c1)C1CC1` [Example 67, N—((S)-(7-((R)-Cyclopropyl(4,4,4-trifluorobutanamido)methyl)imidazo[1,2-b]pyridazin-2-yl)(4,4-difluorocyclohexyl)methyl)-1-(difluoromethyl)-1H-pyrazole-5-carboxamide], for which the IC50 (usually the concentration that gives 50% inhibition) came out at 180 nM in test [1] (Homo sapiens, Keratinocyte) and 82 nM in test [2].
For the compound `O=C(CCC(F)(F)F)N[C@@H](c1cnn2cc([C@@H](NC(=O)c3cnnn3C3CC3)C3CCC(F)(F)CC3)nc2c1)C1CC1` [Example 68, 1-Cyclopropyl-N—((S)-(7-((R)-cyclopropyl(4,4,4-trifluorobutanamido)methyl)imidazo[1,2-b]pyridazin-2-yl)(4,4-difluorocyclohexyl)methyl)-1H-1,2,3-triazole-5-carboxamide], the IC50 in test [1] (Homo sapiens, Keratinocyte) is 250 nM; in test [2], 150 nM.
As for `O=C(CCC(F)(F)F)N[C@@H](c1cnn2cc([C@@H](NC(=O)c3ccnn3C(CF)CF)C3CCC(F)(F)CC3)nc2c1)C1CC1` [Example 69, N—((S)-(7-((R)-Cyclopropyl(4,4,4-trifluorobutanamido)methyl)imidazo[1,2-b]pyridazin-2-yl)(4,4-difluorocyclohexyl)methyl)-1-(1,3-difluoropropan-2-yl)-1H-pyrazole-5-carboxamide], the IC50 in test [1] (Homo sapiens, Keratinocyte) is 55 nM; in test [2], 110 nM.
With `O=C(CCC(F)(F)F)N[C@@H](c1cnn2cc([C@@H](NC(=O)c3ncnn3CCOC(F)(F)F)C3CCC(F)(F)CC3)nc2c1)C1CC1` [Example 70, N—((S)-(7-((R)-Cyclopropyl(4,4,4-trifluorobutanamido)methyl)imidazo[1,2-b]pyridazin-2-yl)(4,4-difluorocyclohexyl)methyl)-1-(2-(trifluoromethoxy)ethyl)-1H-1,2,4-triazole-5-carboxamide], the IC50 in test [1] (Homo sapiens, Keratinocyte) is 110 nM; in test [2] it was 49 nM.
Take `O=C(CCC(F)(F)F)N[C@@H](c1cnn2cc([C@@H](NC(=O)c3ccnc(CC(F)(F)F)c3)C3CCC(F)(F)CC3)nc2c1)C1CC1` [Example 74, N—((S)-(7-((R)-Cyclopropyl(4,4,4-trifluorobutanamido)methyl)imidazo[1,2-b]pyridazin-2-yl)(4,4-difluorocyclohexyl)methyl)-2-(2,2,2-trifluoroethyl)isonicotinamide]: the 50% inhibitory concentration (IC50) in test [1] (Homo sapiens, Keratinocyte) came out at 58 nM; in test [2], 120 nM.
On the same counts, the results for `O=C(CCC(F)(F)F)N[C@@H](c1cnn2cc([C@@H](NC(=O)c3conc3C3CC3)C3CCC(F)(F)CC3)nc2c1)C1CC1` [Example 75, 3-Cyclopropyl-N—((S)-(7-((R)-cyclopropyl(4,4,4-trifluorobutanamido)methyl)imidazo[1,2-b]pyridazin-2-yl)(4,4-difluorocyclohexyl)methyl)isoxazole-4-carboxamide] are 92 nM and 50 nM.
On the same counts, the results for `CC(C)c1nocc1C(=O)N[C@H](c1cn2ncc([C@H](NC(=O)CCC(F)(F)F)C3CC3)cc2n1)C1CCC(F)(F)CC1` [Example 76, N—((S)-(7-((R)-Cyclopropyl(4,4,4-trifluorobutanamido)methyl)imidazo[1,2-b]pyridazin-2-yl)(4,4-difluorocyclohexyl)methyl)-3-isopropylisoxazole-4-carboxamide] are 67 nM and 67 nM.
On the same counts, the results for `O=C(CCC(F)(F)F)N[C@@H](c1cnn2cc([C@@H](NC(=O)c3conc3CCC(F)(F)F)C3CCC(F)(F)CC3)nc2c1)C1CC1` [Example 77, N—((S)-(7-((R)-Cyclopropyl(4,4,4-trifluorobutanamido)methyl)imidazo[1,2-b]pyridazin-2-yl)(4,4-difluorocyclohexyl)methyl)-3-(3,3,3-trifluoropropyl)isoxazole-4-carboxamide] are 60 nM and 50 nM.
For the compound `Cc1cc(C(=O)N[C@H](c2cn3ncc([C@H](NC(=O)CCC(F)(F)F)C4CC4)cc3n2)C2CCC(F)(F)CC2)n(C(C)C)n1` [Example 78, N—((S)-(7-((R)-Cyclopropyl(4,4,4-trifluorobutanamido)methyl)imidazo[1,2-b]pyridazin-2-yl)(4,4-difluorocyclohexyl)methyl)-1-isopropyl-3-methyl-1H-pyrazole-5-carboxamide], the IC50 amounted to 330 nM in test [1] (Homo sapiens, Keratinocyte) and 260 nM in test [2].
On the same counts, the results for `Cc1nocc1C(=O)N[C@H](c1cn2ncc([C@H](NC(=O)CCC(F)(F)F)C3CC3)cc2n1)C1CCC(F)(F)CC1` [Example 79, N—((S)-(7-((R)-Cyclopropyl(4,4,4-trifluorobutanamido)methyl)imidazo[1,2-b]pyridazin-2-yl)(4,4-difluorocyclohexyl)methyl)-3-methylisoxazole-4-carboxamide] are 150 nM and 84 nM.
As for `Cc1noc(C)c1C(=O)N[C@H](c1cn2ncc([C@H](NC(=O)CCC(F)(F)F)C3CC3)cc2n1)C1CCC(F)(F)CC1` [Example 80, N—((S)-(7-((R)-Cyclopropyl(4,4,4-trifluorobutanamido)methyl)imidazo[1,2-b]pyridazin-2-yl)(4,4-difluorocyclohexyl)methyl)-3,5-dimethylisoxazole-4-carboxamide], the IC50 was greater than 20000 nM in test [1] (Homo sapiens, Keratinocyte) and 17000 nM in test [2].
Taken in the same sequence, the figures for `Cc1noc(C(C)C)c1C(=O)N[C@H](c1cn2ncc([C@H](NC(=O)CCC(F)(F)F)C3CC3)cc2n1)C1CCC(F)(F)CC1` [Example 81, N—((S)-(7-((R)-Cyclopropyl(4,4,4-trifluorobutanamido)methyl)imidazo[1,2-b]pyridazin-2-yl)(4,4-difluorocyclohexyl)methyl)-5-isopropyl-3-methylisoxazole-4-carboxamide] were greater than 20000 nM and 5600 nM.
On the same counts, the results for `CCc1noc(C)c1C(=O)N[C@H](c1cn2ncc([C@H](NC(=O)CCC(F)(F)F)C3CC3)cc2n1)C1CCC(F)(F)CC1` [Example 82, N—((S)-(7-((R)-Cyclopropyl(4,4,4-trifluorobutanamido)methyl)imidazo[1,2-b]pyridazin-2-yl)(4,4-difluorocyclohexyl)methyl)-3-ethyl-5-methylisoxazole-4-carboxamide] are greater than 20000 nM and 3000 nM.
As to `CCc1nocc1C(=O)N[C@H](c1cn2ncc([C@H](NC(=O)CCC(F)(F)F)C3CC3)cc2n1)C1CCC(F)(F)CC1` [Example 83, N—((S)-(7-((R)-Cyclopropyl(4,4,4-trifluorobutanamido)methyl)imidazo[1,2-b]pyridazin-2-yl)(4,4-difluorocyclohexyl)methyl)-3-ethylisoxazole-4-carboxamide], the IC50 in test [1] (Homo sapiens, Keratinocyte) was found to be 60 nM; in test [2], 33 nM.
With `O=C(CCC(F)(F)F)N[C@@H](c1cnn2cc([C@@H](NC(=O)c3cnoc3C3CC3)C3CCC(F)(F)CC3)nc2c1)C1CC1` [Example 84, 5-Cyclopropyl-N—((S)-(7-((R)-cyclopropyl(4,4,4-trifluorobutanamido)methyl)imidazo[1,2-b]pyridazin-2-yl)(4,4-difluorocyclohexyl)methyl)isoxazole-4-carboxamide], the IC50 in test [1] (Homo sapiens, Keratinocyte) was found to be 160 nM; in test [2] it was 80 nM.
Taken in the same sequence, the figures for `CC(C)n1cncc1C(=O)N[C@H](c1cn2ncc([C@H](NC(=O)CCC(F)(F)F)C3CC3)cc2n1)C1CCC(F)(F)CC1` [Example 85, N—((S)-(7-((R)-Cyclopropyl(4,4,4-trifluorobutanamido)methyl)imidazo[1,2-b]pyridazin-2-yl)(4,4-difluorocyclohexyl)methyl)-1-isopropyl-1H-imidazole-5-carboxamide] were 340 nM and 250 nM.
As for `CC(C)c1ocnc1C(=O)N[C@H](c1cn2ncc([C@H](NC(=O)CCC(F)(F)F)C3CC3)cc2n1)C1CCC(F)(F)CC1` [Example 86, N—((S)-(7-((R)-Cyclopropyl(4,4,4-trifluorobutanamido)methyl)imidazo[1,2-b]pyridazin-2-yl)(4,4-difluorocyclohexyl)methyl)-5-isopropyloxazole-4-carboxamide], the IC50 is 350 nM in test [1] (Homo sapiens, Keratinocyte) and 210 nM in test [2].
On the same counts, the results for `CC(C)c1snnc1C(=O)N[C@H](c1cn2ncc([C@H](NC(=O)CCC(F)(F)F)C3CC3)cc2n1)C1CCC(F)(F)CC1` [Example 87, N—((S)-(7-((R)-Cyclopropyl(4,4,4-trifluorobutanamido)methyl)imidazo[1,2-b]pyridazin-2-yl)(4,4-difluorocyclohexyl)methyl)-5-isopropyl-1,2,3-thiadiazole-4-carboxamide] are 95 nM and 33 nM.
On the same counts, the results for `CCc1oncc1C(=O)N[C@H](c1cn2ncc([C@H](NC(=O)CCC(F)(F)F)C3CC3)cc2n1)C1CCC(F)(F)CC1` [Example 88, N—((S)-(7-((R)-Cyclopropyl(4,4,4-trifluorobutanamido)methyl)imidazo[1,2-b]pyridazin-2-yl)(4,4-difluorocyclohexyl)methyl)-5-ethylisoxazole-4-carboxamide] are 110 nM and 56 nM.
For `CC(C)c1oncc1C(=O)N[C@H](c1cn2ncc([C@H](NC(=O)CCC(F)(F)F)C3CC3)cc2n1)C1CCC(F)(F)CC1` [Example 89, N—((S)-(7-((R)-Cyclopropyl(4,4,4-trifluorobutanamido)methyl)imidazo[1,2-b]pyridazin-2-yl)(4,4-difluorocyclohexyl)methyl)-5-isopropylisoxazole-4-carboxamide], the IC50 in test [1] was found to be 65 nM; in test [2], 43 nM.
